Source: ChEMBL document CHEMBL1144495, “Tri-, tetra- and heptacyclic perylene analogues as new potential antineoplastic agents based on DNA telomerase inhibition” (Bioorg Med Chem, 2007)
Calls of active or inactive are those of the source. The calls are words filed in the database; no cut-off is given here.

Tests used:
[1] = Selectivity index, ratio of IC50 for Taq polymerase to IC50 for telomerase
[2] = biological target: T1, Telomerase reverse transcriptase (Homo sapiens, UniProt O14746); test: Inhibition of telomerase in JR8 cell extract by TRAP assay; assay type: cell-free
HT-29 = test: Cytotoxicity against human HT29 cells by MTT assay; assay type: cell-based
[3] = biological target: DNA polymerase I, thermostable (Thermus aquaticus, UniProt P19821); test: Inhibition of Taq polymerase
NCI-H460 = test: Cytotoxicity against human H460 cells by MTT assay; assay type: cell-based
[4] = biological target: T1, Telomerase reverse transcriptase; test: Inhibition of telomerase in JR8 cell extract at 0 to 40 uM by TRAP assay; assay type: cell-free

T1 sequence (O14746 whole entry): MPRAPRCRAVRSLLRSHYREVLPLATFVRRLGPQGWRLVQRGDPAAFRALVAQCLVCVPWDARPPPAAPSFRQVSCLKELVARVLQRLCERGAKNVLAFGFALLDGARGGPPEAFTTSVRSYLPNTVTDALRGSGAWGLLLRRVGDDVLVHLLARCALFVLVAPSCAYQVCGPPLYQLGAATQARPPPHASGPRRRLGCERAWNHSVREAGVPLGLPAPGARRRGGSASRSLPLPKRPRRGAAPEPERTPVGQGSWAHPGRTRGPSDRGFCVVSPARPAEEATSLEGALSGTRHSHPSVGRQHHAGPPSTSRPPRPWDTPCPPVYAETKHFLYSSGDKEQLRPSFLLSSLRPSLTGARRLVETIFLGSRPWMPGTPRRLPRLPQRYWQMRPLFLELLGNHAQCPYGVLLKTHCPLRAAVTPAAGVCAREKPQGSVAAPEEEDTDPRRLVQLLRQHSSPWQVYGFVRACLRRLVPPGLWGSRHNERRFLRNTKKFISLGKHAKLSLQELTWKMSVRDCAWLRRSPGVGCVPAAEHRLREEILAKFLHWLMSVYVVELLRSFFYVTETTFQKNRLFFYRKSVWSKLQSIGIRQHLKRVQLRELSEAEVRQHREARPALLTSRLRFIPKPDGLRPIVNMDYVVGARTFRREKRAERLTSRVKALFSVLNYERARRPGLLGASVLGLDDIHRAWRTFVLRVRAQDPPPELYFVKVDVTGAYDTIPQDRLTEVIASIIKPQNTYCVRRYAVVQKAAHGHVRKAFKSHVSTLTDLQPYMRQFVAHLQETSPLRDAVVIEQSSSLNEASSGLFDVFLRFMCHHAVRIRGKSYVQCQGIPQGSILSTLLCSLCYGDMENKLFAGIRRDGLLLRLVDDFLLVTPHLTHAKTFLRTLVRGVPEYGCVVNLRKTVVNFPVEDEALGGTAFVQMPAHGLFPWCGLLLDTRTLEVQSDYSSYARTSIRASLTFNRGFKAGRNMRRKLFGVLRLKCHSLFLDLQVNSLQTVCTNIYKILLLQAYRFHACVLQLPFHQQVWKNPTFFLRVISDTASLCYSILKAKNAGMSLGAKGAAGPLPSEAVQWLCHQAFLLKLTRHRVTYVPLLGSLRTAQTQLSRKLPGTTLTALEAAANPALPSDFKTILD
Chain of DNA polymerase I, thermostable (P19821 whole entry): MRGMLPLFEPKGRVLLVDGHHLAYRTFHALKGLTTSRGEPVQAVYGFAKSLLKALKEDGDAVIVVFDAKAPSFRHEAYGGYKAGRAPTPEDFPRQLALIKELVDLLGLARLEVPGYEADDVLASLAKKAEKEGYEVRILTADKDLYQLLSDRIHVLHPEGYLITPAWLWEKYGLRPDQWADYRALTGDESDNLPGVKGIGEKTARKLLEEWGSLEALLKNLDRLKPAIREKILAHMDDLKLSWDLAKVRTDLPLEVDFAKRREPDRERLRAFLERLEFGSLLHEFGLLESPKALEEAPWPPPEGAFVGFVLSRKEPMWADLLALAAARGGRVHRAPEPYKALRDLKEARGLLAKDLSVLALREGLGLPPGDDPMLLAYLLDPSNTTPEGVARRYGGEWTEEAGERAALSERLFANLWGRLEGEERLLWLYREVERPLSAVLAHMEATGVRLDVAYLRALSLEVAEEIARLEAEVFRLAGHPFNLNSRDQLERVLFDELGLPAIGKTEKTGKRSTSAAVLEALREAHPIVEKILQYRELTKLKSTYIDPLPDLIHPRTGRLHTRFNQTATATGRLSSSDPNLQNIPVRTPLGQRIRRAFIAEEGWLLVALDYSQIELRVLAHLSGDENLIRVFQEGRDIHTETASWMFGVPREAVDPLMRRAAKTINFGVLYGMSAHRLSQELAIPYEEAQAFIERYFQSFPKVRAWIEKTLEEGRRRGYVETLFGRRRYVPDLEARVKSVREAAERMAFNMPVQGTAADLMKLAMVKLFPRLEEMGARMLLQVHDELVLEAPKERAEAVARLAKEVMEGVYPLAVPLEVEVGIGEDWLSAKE

Structure (SMILES) | Selectivity index [1] | IC50 [2] [µM] | IC50 [3] [µM] | Activity [4] | IC50 (HT-29) [µM] | IC50 (NCI-H460) [µM]
CN(C)CCN1C(=O)c2ccc3c4ccc5c6c(ccc(c7ccc(c2c37)C1=O)c64)C(=O)N(CCN(C)C)C5=O | 5.6 | 0.16 | 0.9 |  | 0.23 | 2.3
CN(C)CCN1Cc2ccc3c4c(ccc(c24)C1)CN(CCN(C)C)C3 |  |  | 25 | inactive | 15.2 | ≥ 100
O=C1c2ccc3c4ccc5c6c(ccc(c7ccc(c2c37)C(=O)N1CCN1CCCCC1)c64)C(=O)N(CCN1CCCCC1)C5=O | 25 | 0.2 | 5 |  | 9.02 | ≥ 100
CN(C)CCCN1C(=O)c2ccc3c4c(ccc(c24)C1=O)C(=O)N(CCCN(C)C)C3=O | 1.8 | 3.5 | 6.4 |  | 0.13 | 0.42
C[N+](C)(C)CCN1C(=O)c2cccc3cccc(c23)C1=O |  |  | 22 | inactive |  | ≥ 100
c1cc2c3ccc4c5c(ccc(c6ccc7c(c1CN(CCN1CCCCC1)C7)c26)c53)CN(CCN1CCCCC1)C4 | 25 | 0.4 | 10 |  | 5.4 | 28.1
CN(C)CCN1C(=O)c2cccc3cccc(c23)C1=O |  |  | > 40 | inactive | 5.05 | 3.42
CN1Cc2ccc3c4c(ccc(c24)C1)CN(C)C3 |  |  | > 40 | inactive | ≥ 100 | ≥ 100
CN(C)CCN1Cc2cccc3cccc(c23)C1 |  |  | > 40 | inactive | ≥ 100 | ≥ 100

More lines, main results first:

Selectivity index [1] | IC50 [2] [µM] | IC50 [3] [µM] | Activity [4] | Structure (SMILES) | IC50 (HT-29) [µM] | IC50 (NCI-H460) [µM]
4.2 | 0.03 | 0.15 |  | C[N+](C)(C)CCN1C(=O)c2ccc3c4ccc5c6c(ccc(c7ccc(c2c37)C1=O)c64)C(=O)N(CC[N+](C)(C)C)C5=O | ≥ 100 | ≥ 100
2 | 2.5 | 5 |  | C[N+](C)(C)CCCN1C(=O)c2ccc3c4c(ccc(c24)C1=O)C(=O)N(CCC[N+](C)(C)C)C3=O | 8.89 | 1.14
2 | 0.06 | 0.2 |  | O=C1c2ccc3c4ccc5c6c(ccc(c7ccc(c2c37)C(=O)N1CCNCCO)c64)C(=O)N(CCNCCO)C5=O | 1.17 | 2.62
 |  | 5.8 | inactive | O=C1c2ccc3c4c(ccc(c24)C(=O)N1CCNCCO)C(=O)N(CCNCCO)C3=O | 11.7 | 9.3
 |  | 1.5 | inactive | CN(C)CCN1C(=O)c2ccc3c4c(ccc(c24)C1=O)C(=O)N(CCN(C)C)C3=O |  | 0.16
2 | 2.5 | 5 |  | C[N+](C)(C)CCN1C(=O)c2ccc3c4c(ccc(c24)C1=O)C(=O)N(CC[N+](C)(C)C)C3=O | 3.24 | 2.21
